According to patent US11427552B2, “Heterocyclic compounds useful in the treatment of disease” (EPIGEN BIOSCIENCES, INC., priority 2013, dated 2022):

molecular target: T1, LPA1R (Homo sapiens, UniProt Q92633); assay: LPA1R Ca2+ flux functional assay (antagonist mode, FLIPR); assay type: cell-based; conditions: inhibition of LPA-stimulated Ca2+ flux, LPA at EC80, LPA1R expressing cells (Millipore); read-out: LPA1 R Antagonist Activity
T1 construct: host or cells: LPA1R expressing cells (Millipore, GPCR Profiler)
T1 sequence (Q92633 whole entry): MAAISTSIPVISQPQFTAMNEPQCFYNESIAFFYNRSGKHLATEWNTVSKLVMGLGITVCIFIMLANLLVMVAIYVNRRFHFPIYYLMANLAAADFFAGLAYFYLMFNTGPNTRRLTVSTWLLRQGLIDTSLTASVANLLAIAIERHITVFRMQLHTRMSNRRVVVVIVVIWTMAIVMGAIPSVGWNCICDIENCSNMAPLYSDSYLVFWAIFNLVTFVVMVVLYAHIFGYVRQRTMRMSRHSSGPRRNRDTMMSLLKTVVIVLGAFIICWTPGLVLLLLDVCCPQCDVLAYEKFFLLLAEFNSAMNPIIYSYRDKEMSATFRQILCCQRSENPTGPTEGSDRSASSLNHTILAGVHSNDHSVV
Procedure: Inhibition of LPA-stimulated Ca^2+ flux was used to assess compound potency using FLIPR technology in a 96 well plate format. The assay buffer used was a modified Hanks Balanced Salt Solution (HBSS) where HBSS was supplemented to contain 20 mM HEPES and 2.5 mM Probenecid at pH7.4 (Millipore, GPCR Profiler®). LPA1R expressing cells (Millipore) were plated and prepared 24 hours prior to assay of test articles. Ca^2+ ion flux was assessed from fluorescence of a Fluo-based No Wash Ca^2+ dye. Antagonist data are generated from plates with LPA concentrations sufficient to generate 80% efficacy [EC80]. Percentage inhibition was calculated from a reduction of efficacy according to concentration of compounds of Formula I-VI. For dose responses the inhibition data was used to calculate compound IC50. The agonist assay was conducted on a FLIPR^TETRA instrument where the test compound(s), vehicle controls, and reference agonist were added to the assay plate after a fluorescence baseline was established. The agonist assay was a total of 180 seconds and was used to assess each compound's ability to activate each GPCR assayed. Upon completion of the agonist assay, the assay plate was removed from the FLIPR^TETRA and incubated at 25° C. for seven (7) minutes. After the incubation period, the assay plate was placed back in the FLIPR^TETRA and the antagonist assay was initiated. Using EC80 potency values determined during the agonist assay, all pre-incubated sample compound wells were challenged with EC80 concentration of reference agonist after establishment of a fluorescence baseline. The antagonist assay was conducted using the same assay plate that was used for the agonist assay. The antagonist assay was conducted on a FLIPR^TETRA instrument where 9 vehicle controls and EC80 concentration of reference agonist were added to appropriate wells. The antagonist assay was a total of 180 seconds and was used to assess each compound's ability to inhibit each GPCR assayed. All assay plate data were subjected to appropriate baseline corrections. After baseline corrections were applied, maximum fluorescence values were exported and data processed to calculate percentage activation (relative to Emax reference agonist and vehicle control values), percentage inhibition (relative to EC80 and vehicle control values), and additional statistical values (i.e. Z′, percentage variation between replicate data values) to assess the quality of each plate. Where assay plate data were rejected, additional experiments were conducted. All dose response curves were generated using GraphPad Prism. The curves were fit by utilizing “Sigmoidal Dose Response (Variable Slope)” equation where the bottom parameter was fixed to “0.” Where appropriate, the top parameter was fixed to “100” to better predict potency values when a full curve was not generated by the concentrations assayed.

SMILES	IC50
Cc1noc(-c2ccc(C(=O)N[C@H](CC3CC3)C(=O)O)cc2)c1NC(=O)O[C@H](C)c1ccccc1Cl [Example 17, (R)-2-(4-{4-[(R)-1-(2-chloro-phenyl)-ethoxycarbonylamino]-3-methyl-isoxazol-5-yl}-benzoylamino)-3-cyclopropyl-propionic Acid]	< 300 nM
Cc1noc(-c2ccc(CN[C@H](CC3CC3)C(=O)O)cc2)c1NC(=O)O[C@H](C)c1ccccc1 [Example 34, (R)-3-Cyclopropyl-2-{4-[3-methyl-4-((R)-1-phenyl-ethoxycarbonylamino)-isoxazol-5-yl]-benzylamino}-propionic acid]	< 300 nM
Cc1c(NC(=O)O[C@H](C)c2ccccc2)c(-c2ccc(C(=O)N[C@H](Cc3ccc(F)c(F)c3)C(=O)O)cc2)nn1C [Example 16, (R)-3-(3,4-difluorophenyl)-2-[[4-[1,5-dimethyl-4-((R)-1-phenylethoxycarbonyl-amino)pyrazol-3-yl]benzoyl]amino]propanoic Acid]	> 50000 nM
Cc1noc(-c2ccc(C(=O)N[C@H](Cc3ccc(Cl)cc3)C(=O)O)cc2)c1NC(=O)O[C@H](C)c1ccccc1Cl [Example 22, (R)-3-(4-Chloro-phenyl)-2-(4-{4-[(R)-1-(2-chloro-phenyl)-ethoxycarbonylamino]-3-methyl-isoxazol-5-yl}-benzoylamino)-propionic Acid]	< 300 nM
Cc1noc(-c2ccc(COC(Cc3ccccc3)C(=O)O)cc2)c1NC(=O)O[C@H](C)c1ccccc1 (stereo partly drawn) [Example 43, 2-{4-[3-Methyl-4-((R)-1-phenyl-ethoxycarbonylamino)-isoxazol-5-yl]-benzyloxy}-3-phenyl-propionic Acid]	300 to 1000 nM
Cc1noc(-c2ccc(C(=O)N[C@H](Cc3ccc(C(F)(F)F)cc3)C(=O)O)cc2)c1NC(=O)O[C@H](C)c1ccccc1Cl [Example 28, (R)-2-(4-{4-[(R)-1-(2-Chloro-phenyl)-ethoxycarbonylamino]-3-methyl-isoxazol-5-yl}-benzoylamino)-3-(4-trifluoromethyl-phenyl)-propionic Acid]	< 300 nM
Cc1noc(-c2ccc(CN[C@H](Cc3ccccc3F)C(=O)O)cc2)c1NC(=O)O[C@H](C)c1ccccc1 [Example 32, (R)-3-(2-Fluoro-phenyl)-2-{4-[3-methyl-4-((R)-1-phenyl-ethoxycarbonylamino)-isoxazol-5-yl]-benzylamino}-propionic Acid]	< 300 nM
Cc1nn(C)c(-c2ccc(-c3ccc(C4(C(=O)O)CC4)cc3)cc2)c1NC(=O)O[C@H](C)c1ccccc1 [Example 48, (R)-1-[4-[4-[2,5-dimethyl-4-(1-phenylethoxycarbonylamino)pyrazol-3-yl]phenyl]phenyl]cyclopropane Carboxylic Acid]	1000 to 50000 nM
Cc1noc(-c2ccc(C(=O)N[C@H](Cc3ccccc3)C(=O)O)cc2)c1NC(=O)O[C@@H](C)c1ccccc1 [Example 18, (R)-2-{4-[3-Methyl-4-((S)-1-phenyl-ethoxycarbonylamino)-isoxazol-5-yl]-benzoylamino}-3-phenyl-propionic Acid]	> 50000 nM
